Measured values from ChEMBL document CHEMBL3580562 (J Med Chem, 2015).
Each block holds one compound with its values, some of them ahead of it.

What was measured:
[1] = AUC in mouse at 100 mg/kg, po; format: ADME, organism-based; conditions: in vivo
[2] = AUC in mouse at 10 mg/kg, po; format: ADME, organism-based; conditions: in vivo
[3] = Drug uptake in CD-IGS rat at 1 mg/kg, po administered for 3 days measured at 24 hrs post last dose; format: ADME, organism-based; conditions: in vivo, read-out: Drug uptake
[4] = AUC in 17-beta estradiol pellets supplemented nu/nu mouse xenografted with tamoxifen-resistant human MCF7 cells at 100 mg/kg/day, po administered for 4 weeks measured on day 28; format: ADME, organism-based; conditions: in vivo
[5] = test system: Mus musculus; assay: AUC in mouse assessed as GW-7604 at 100 mg/kg, po; format: ADME, organism-based; conditions: in vivo
[6] = Half life in phosphate buffer at pH 7.4 at 37 degC; format: physicochemical
[7] = Drug level in microsomes (unknown origin) treated with (E)-3-(4-((E)-2-(2-chloro-4-fluorophenyl)-1-(1H-indazol-5-yl)but-1-enyl)phenyl)acrylic acid; format: ADME, Microsome
[8] = AUC in 17-beta estradiol pellets supplemented nu/nu mouse xenografted with tamoxifen-resistant human MCF7 cells at 200 mg/kg, sc administered 3 times per week for 4 weeks measured on day 28; format: ADME, organism-based; conditions: in vivo
[9] = Drug uptake in CD-IGS rat at 1 mg/kg, po administered for 3 days measured at 6 hrs post last dose; format: ADME, organism-based; conditions: in vivo, read-out: Drug uptake
[10] = Oral bioavailability in cynomolgus monkey at 10 mg/kg; format: ADME, organism-based, Macaca fascicularis; conditions: in vivo
[11] = Cmax in dog at 10 mg/kg, po; format: ADME, organism-based, Canis lupus familiaris; design: dose 10 mg/kg, route oral; conditions: in vivo
[12] = Cmax in rat at 10 mg/kg, po; format: ADME, organism-based; design: dose 10 mg/kg, route oral; conditions: in vivo
[13] = Oral bioavailability in dog at 10 mg/kg; format: ADME, organism-based, Canis lupus familiaris; conditions: in vivo
[14] = Volume of distribution at steady state in rat at 3 mg/kg, iv and 10 mg/kg, po; format: ADME, organism-based; conditions: in vivo, read-out: Vdss
[15] = Volume of distribution at steady state in cynomolgus monkey at 3 mg/kg, iv and 10 mg/kg, po; format: ADME, organism-based, Macaca fascicularis; conditions: in vivo, read-out: Vdss
[16] = Clearance in dog at 3 mg/kg, iv and 10 mg/kg, po; format: ADME, organism-based, Canis lupus familiaris; conditions: in vivo
[17] = Half life in dog at 3 mg/kg, iv; format: ADME, organism-based, Canis lupus familiaris; conditions: in vivo
[18] = AUC in rat at 10 mg/kg, po; format: ADME, organism-based; conditions: in vivo
[19] = Oral bioavailability in rat at 10 mg/kg; format: ADME, organism-based; conditions: in vivo
[20] = Clearance in rat at 3 mg/kg, iv and 10 mg/kg, po; format: ADME, organism-based; conditions: in vivo
[21] = AUC in dog at 10 mg/kg, po; format: ADME, organism-based, Canis lupus familiaris; conditions: in vivo
[22] = Half life in cynomolgus monkey at 3 mg/kg, iv; format: ADME, organism-based, Macaca fascicularis; conditions: in vivo
[23] = AUC in 17-beta estradiol pellets supplemented nu/nu mouse xenografted with tamoxifen-resistant human MCF7 cells at 30 mg/kg/day, po administered for 4 weeks measured on day 28; format: ADME, organism-based; conditions: in vivo
[24] = Clearance in cynomolgus monkey at 3 mg/kg, iv and 10 mg/kg, po; format: ADME, organism-based, Macaca fascicularis; conditions: in vivo
[25] = Half life in mouse at 3 mg/kg, iv; format: ADME, organism-based; conditions: in vivo
[26] = Cmax in mouse at 10 mg/kg, po; format: ADME, organism-based; design: dose 10 mg/kg, route oral; conditions: in vivo
[27] = AUC in cynomolgus monkey at 10 mg/kg, po; format: ADME, organism-based, Macaca fascicularis; conditions: in vivo
[28] = Volume of distribution at steady state in dog at 3 mg/kg, iv and 10 mg/kg, po; format: ADME, organism-based, Canis lupus familiaris; conditions: in vivo, read-out: Vdss
[29] = Cmax in cynomolgus monkey at 10 mg/kg, po; format: ADME, organism-based, Macaca fascicularis; design: dose 10 mg/kg, route oral; conditions: in vivo
[30] = Volume of distribution at steady state in mouse at 3 mg/kg, iv and 10 mg/kg, po; format: ADME, organism-based; conditions: in vivo, read-out: Vdss
[31] = Half life in rat at 3 mg/kg, iv; format: ADME, organism-based; conditions: in vivo
[32] = Drug metabolism in microsomes (unknown origin) assessed as formation of (2S,3S,4R,5R,6S)-6-((E)-3-(4-((E)-2-(2-chloro-4-fluorophenyl)-1-(1H-indazol-5-yl)but-1-enyl)phenyl)acryloyloxy)-3,4,5-trihydroxytetrahydro-2H-pyran-2-carboxylic acid; format: ADME, Microsome
[33] = in vivo; conditions: mouse, iv, 3 mg/kg

SMILES: CC/C(=C(\c1ccccc1)c1ccc(/C=C/C(=O)O)cc1)c1ccccc1
AUC [1]: 137000 ng·h/mL

SMILES: CC/C(=C(/c1ccc(/C=C/C(=O)O)cc1)c1ccc2[nH]c(=O)oc2c1)c1ccccc1
AUC [2]: 3000 ng·h/mL
concentration at 24 h [3]: 0.2 nM

SMILES: Cc1c(-c2ccc(O)cc2)n(Cc2ccc(OCCN3CCCCC3)cc2)c2ccc(O)cc12 [PIPENDOXIFENE]
AUC at 672 h [4]: 7000 ng·h/mL

SMILES: CC/C(=C(\c1ccc(O)cc1)c1ccc(/C=C/C(=O)O)cc1)c1ccccc1
AUC [5]: 13000 ng·h/mL

SMILES: CC/C(=C(/c1ccc(/C=C/C(=O)O)cc1)c1cccc2[nH]ncc12)c1ccccc1
AUC [2]: 2800 ng·h/mL
concentration at 24 h [3]: 0.1 nM

SMILES: CC/C(=C(/c1ccc(/C=C/C(=O)O[C@@H]2O[C@H](C(=O)O)[C@@H](O)[C@H](O)[C@H]2O)cc1)c1ccc2[nH]ncc2c1)c1ccc(F)cc1Cl
half-life [6]: 8.1 h
Drug metabolism [7]: metabolite_detected

SMILES: C[C@]12CC[C@@H]3c4ccc(O)cc4C[C@@H](CCCCCCCCC[S+]([O-])CCCC(F)(F)C(F)(F)F)[C@H]3[C@@H]1CC[C@@H]2O (stereo partly specified) [FULVESTRANT]
AUC at 672 h [8]: 11000 ng·h/mL

SMILES: COc1ccc(-c2sc3cc(O)ccc3c2Oc2ccc(OCCN3CCCCC3)cc2)cc1 [ARZOXIFENE]
AUC at 672 h [4]: 50000 ng·h/mL

SMILES: O=C(Cc1ccccc1Nc1c(Cl)cccc1Cl)O[C@@H]1O[C@H](C(=O)O)[C@@H](O)[C@H](O)[C@H]1O
half-life [6]: 0.9 h

SMILES: CC/C(=C(/c1ccc(/C=C/C(=O)O)cc1)c1ccc2[nH]ccc2c1)c1ccccc1
AUC [2]: 9400 ng·h/mL

Now from value to compound:

AUC [2]: 2300 ng·h/mL
SMILES: CC/C(=C(/c1ccc(/C=C/C(=O)O)cc1)c1ccc2[nH]nnc2c1)c1ccccc1

AUC [2]: 5800 ng·h/mL
AUC [1]: 240000 ng·h/mL
concentration at 24 h [3]: 3.8 nM
SMILES: CC/C(=C(/c1ccc(/C=C/C(=O)O)cc1)c1ccc2[nH]ncc2c1)c1ccccc1

AUC [2]: 200 ng·h/mL
SMILES: CC/C(=C(/c1ccc(/C=C/C(=O)O)cc1)c1ccc2[nH]ncc2c1)c1ccccc1C#N

AUC [2]: 4300 ng·h/mL
concentration at 6 h [9]: 14 nM
SMILES: CC/C(=C(/c1ccc(/C=C/C(=O)O)cc1)c1ccc2[nH]ncc2c1)c1ccc(C#N)cc1C

AUC [2]: 3800 ng·h/mL
concentration at 24 h [3]: 10 nM
SMILES: CC/C(=C(/c1ccc(/C=C/C(=O)O)cc1)c1ccc2[nH]ncc2c1)c1cscc1C

AUC [2]: 15000 ng·h/mL
concentration at 24 h [3]: 3.7 nM
SMILES: CC/C(=C(/c1ccc(/C=C/C(=O)O)cc1)c1ccc2[nH]ncc2c1)c1ccccc1Cl

AUC [2]: 7200 ng·h/mL
concentration at 24 h [3]: 1.7 nM
SMILES: CC/C(=C(/c1ccc(/C=C/C(=O)O)cc1)c1ccc2[nH]ncc2c1)c1ccccc1C

AUC [2]: 11000 ng·h/mL
concentration at 24 h [3]: 11 nM
SMILES: CC/C(=C(/c1ccc(/C=C/C(=O)O)cc1)c1ccc2[nH]ncc2c1)c1cccc(Cl)c1

AUC [2]: 81 ng·h/mL
concentration at 24 h [3]: 7.6 nM
SMILES: CC/C(=C(/c1ccc(/C=C/C(=O)O)cc1)c1ccc2[nH]ncc2c1)c1ccncc1C

AUC [2]: 2900 ng·h/mL
concentration at 6 h [9]: 10 nM
SMILES: CC/C(=C(/c1ccc(/C=C/C(=O)O)cc1)c1ccc2[nH]ncc2c1)c1ccc(C#N)cc1Cl

bioavailability [10]: 42%
Cmax [11]: 20000 ng/mL
Cmax [12]: 1800 ng/mL
bioavailability [13]: 61%
AUC [2]: 8800 ng·h/mL
Vd [14]: 1.9 L/kg
Vd [15]: 0.5 L/kg
clearance [16]: 1.6 mL/min/kg
half-life [17]: 11 h
AUC [18]: 5800 ng·h/mL
bioavailability [19]: 49%
clearance [20]: 14 mL/min/kg
AUC [21]: 69000 ng·h/mL
half-life [22]: 13 h
AUC at 672 h [23]: 21000 ng·h/mL
clearance [24]: 7 mL/min/kg
half-life [25]: 4.2 h
AUC at 672 h [4]: 45000 ng·h/mL
Cmax [26]: 4400 ng/mL
AUC [27]: 10000 ng·h/mL
Vd [28]: 0.2 L/kg
Cmax [29]: 6100 ng/mL
Vd [30]: 1.2 L/kg
half-life [31]: 3.9 h
Drug metabolism [32]: metabolite_detected
concentration at 24 h [3]: 5.2 nM
clearance [33]: 11 mL/min/kg
SMILES: CC/C(=C(/c1ccc(/C=C/C(=O)O)cc1)c1ccc2[nH]ncc2c1)c1ccc(F)cc1Cl [BRILANESTRANT]

AUC [2]: 110 ng·h/mL
concentration at 24 h [3]: 0.5 nM
SMILES: CC/C(=C(/c1ccc(/C=C/C(=O)O)cc1)c1ccc2[nH]ncc2c1)c1ccncc1Cl
